Earlier results in patent US6956029B1, “Solid formulation of glucosamine sulphate” (SCA Lohnherstellungs AG, priority 1999, dated 2005).

Assays:
[1] = first acid dissociation constant
[2] = over 30 days at 75% rH/20° C.

For `O=C1O[C@H]([C@@H](O)CO)C(O)=C1O` [ascorbic acid], the pKa1 [1] is listed as 4.1.

For `O=C(O)CC(O)(CC(=O)O)C(=O)O` [citric acid], the pKa1 [1] is given as 3.1.

In the case of `N[C@H]1C(O)O[C@H](CO)[C@@H](O)[C@@H]1O.O=S(=O)([O-])O.[Cl-].[K+].[K+]` (stereo partly drawn) [mixed salt with potassium chloride, D-glucosamine sulphate di-potassium chloride], the stability on storage [2] is given as “essentially stable”.
